These molecules were tested against T1, Parkin (Homo sapiens, UniProt O60260) (assay: Parkin pUB auto-ubiquitinylation assay (TR-FRET)). Conditions: activation of pUb activated Parkin; read-out: Auto-ubiq EC50 (μM) [Example 3].
T1 construct: Enzyme 3: Parkin-His tagged 203 μM (10.5 mg/ml)
Assay type: biochemical
From the text: A Parkin pUB Auto-ubiquitinylation Assay is used to evaluate a compound's potency to activate Parkin's ability to Auto-ubiquitinylate itself.
The principle of this assay is that the E3 Ligase Parkin catalyzes the transfer of Ubiquitin to target proteins, but also has the ability to auto-ubiquitinylate itself. The phospho-Ubiquition (pUb) added to the assay alters the Parkin to a state where small molecule activators can enable the Parkin to auto-ubiquitinylate though the E1-E2 cascade reaction. The use of a Eu cryptate Ubiquition and anti 6His-d2 that binds to the His tagged Parkin will give a signal when the Eu cryptate Ubiquition is auto-ubiquitinylate onto the Parkin which can be monitored by TR-FRET.
Similar to the Activity-based probe assay in Example 2, screening for activating compounds can be distinguished from the controls as follows:
100% activation signal=pUb activated Parkin+40 nM control activator in DMSO. 0% activation signal=pUb activated Parkin+DMSO only. Parkin activators can be identified by an increase of the 0% activation signal TR-FRET signal.
• Assay Plate: White 384 well plate (Corning 3572) • Enzyme 1: E1 (Ubiquitin-activating enzyme/UBE1 Boston Biochem E-305) • Enzyme 2: E2 (UBcH7/Ube2L3 Boston Biochem E2-640) • Enzyme 3: Parkin-His tagged 203 μM (10.5 mg/ml) • pUb: Phospho-Ubiquitin (S65) (Boston Biochem U-102) • Eu Cryptate Reagent: Ubiquitin Eu (CisBio 61UBIKLA) • DMSO: DMSO (Sigma-34869-2.5L) • Reaction Buffer: 50 mM HEPES, 50 mM NaCl, 1 mM MgCl2, 0.005% Tween 20, 0.1% • PF-127 (Fisher Scientific 50-310-494), pH 8.5 • Detection Buffer: 50 mM HEPES, 50 mM NaCl, 800 mM KF, 5 mM EDTA, 0.005% • Tween 20, 0.1% PF-127, pH 8.5 • Detection Reagent Z: 13.4 nM Anti-6His-d2 in detection buffer • d2 Reagent: Anti-6His-d2 (CisBio 61HISDLA)
Enzyme Reaction (15 min Pre-Incubation with Parkin, pUb and Activator Only) • Parkin: 196 nM • pUb: 196 nM • DMSO: 1% DMSO • E1: 5 nM • E2: 50 nM • Ubiquitin Eu: 8.8 nM • Reaction time: 120 minutes • Temperature: 22° C. • Total volume: 10 μl reaction
Take 10 μl of Enzyme Reaction above and add 10 μl detection Reagent Z under the following conditions:
Reaction time: 60 minutes
1) Load assay plate wells with 4.9 μl 400.0 nM Parkin, 400 nM pUb in reaction buffer by use of Eppendorf 12-channel pipette. 2) Deliver 0.1 μl 100× activator candidates in DMSO by use of Echo 555 compound dispenser. Highest 100× concentration=100 μm and then twofold dilutions. Add each compound and control in duplicate wells. 3) Spin 1000 rpm, 2 minutes, at room temp. 4) Incubate plate for 15 minutes at room temp. 5) Add 5 μl 10 nM E1, 100 nM E2, 17.6 nM Ubiquitin Eu and 2 mM ATP in Reaction Buffer by use of Eppendorf 12-channel pipette. 6) Spin 1000 rpm, 2 minutes, at room temp. 7) Incubate plate for 120 minutes at room temp. 8) Add 10 μl 13.4 nM anti his d2 in detection buffer by use of Eppendorf 12-channel pipette. 9) Spin 1000 rpm, 2 minutes, at room temp. 10) Incubate plate for 120 minutes at room temp. 11) Read plates on Perkin Elmer Envision instrument with the following parameters:
LANCE dual laser protocol loaded into the Envision® software
Top Mirror: LANCE/DELFIA Duel/Bias (Bar code 446) Emission Filter: APC 665 EM (Bar code 205) 2nd Emission Filter: Europium 615 EM (Bar code 203) Read […] (channel 1) and 615 nm (channel 2) wavelengths on Envision®
Data Analysis: The Data can be read in CSV files. There are two tables in those CSV files, which are the values of 655 nm (channel 1) and 615 nm (channel 2) wavelengths respectively. The data is converted to an HTRF Ratio=(Channel 1/Channel 2)*10,000
The average of all the 0 uM controls (DMSO only)=BKGD (Background—0% activation). Subtract BKGD from each HTRF Ratio value=HTRF-BKGD. The average of all the 100 uM control activator in DMSO controls=Max (100% activation). The following equation is then used to calculate % Activation for each well/candidate as follows: % Activation=(HTRF−BKGD/Max)*100.
XLFIT5 model 205 was applied for the data analysis. […]

T1 sequence (O60260 whole entry, other chains not shown): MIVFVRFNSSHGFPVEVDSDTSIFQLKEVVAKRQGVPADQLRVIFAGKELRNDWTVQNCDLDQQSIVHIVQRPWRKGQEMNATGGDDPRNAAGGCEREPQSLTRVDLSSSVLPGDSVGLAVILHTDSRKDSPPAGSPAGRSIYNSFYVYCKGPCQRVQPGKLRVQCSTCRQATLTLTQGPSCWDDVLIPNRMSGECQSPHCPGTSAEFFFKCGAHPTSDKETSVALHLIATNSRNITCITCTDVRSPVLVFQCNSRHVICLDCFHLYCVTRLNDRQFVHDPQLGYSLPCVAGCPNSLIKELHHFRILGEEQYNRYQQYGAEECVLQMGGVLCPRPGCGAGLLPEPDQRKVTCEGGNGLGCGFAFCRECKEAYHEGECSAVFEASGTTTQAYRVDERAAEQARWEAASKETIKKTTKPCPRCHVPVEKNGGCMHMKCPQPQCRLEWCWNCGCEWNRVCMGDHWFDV

EC50, > 40 µM:
Cc1cc(C)c2c(n1)nn1c(S)c(Cc3ccccc3)c(C)nc21 [RR], COc1ccc(-c2cnn3c(S)cc(C)nc23)cc1 [SS], Cc1cc2nc(C)c(Cc3ccccc3)c(S)n2n1 [S], Cc1ccc(-c2cnn3c(S)cc(C)nc23)cc1 [TT], Cc1nc2c(-c3ccccc3)c(C)nn2c(O)c1Cc1ccccc1 [T], Cc1cc(S)n2ncc(-c3cccc(N(C)C)c3)c2n1 [UU], Cc1cc(S)n2ncc(-c3cnn(C)c3)c2n1 [VV], Cc1nn2c(S)c3c(nc2c1-c1ccccc1)CCOC3 [WW], Cc1nn2c(S)c3c(nc2c1-c1ccccc1)COC3 [XX], CNc1c2c(nc3c(-c4ccccc4)c(C)nn13)CCN(C)C2 [YY], Cc1nn2c(S)c(C)c(Cc3ccccc3)nc2c1-c1ccccc1 [ZZ]

— patent US20210163489A1, “PYRAZOLOPYRIMIDINE DERIVATIVES AND THE COMPOSITIONS AND METHODS OF TREATMENT REGARDING THE SAME” (NysnoBio Ireland DAC, priority 2016, published 2021)
